Each block holds one compound with its values, some of them ahead of it.
Test system: 565726-208-R1-J5-PDC complex spheroids, growth inhibition
Assay: Anticancer human tumor 565726-208-R1-J5-PDC patient-derived pancreatic adenocarcinoma cell line growth inhibition [RAS]
Conditions: for viability, T/C: stronger effect = lower value
Procedure, shortened: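 Tumour cells grown as complex spheroids with HUVEC endothelial cells and mesenchymal stem cells, treated with RAS pathway inhibitor combinations. Each agent spans half-log steps from near clinical Cmax, or 10 microM where Cmax is unknown.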

[1] = curve of first compound, second compound 0.000949 µM
[2] = curve of first compound, second compound 0.003 µM
[3] = curve of first compound, second compound 0.00949 µM
[4] = curve of first compound, second compound 0.03 µM
[5] = curve of first compound, second compound 0.0949 µM
[6] = curve of first compound, second compound 0.3 µM
[7] = second compound 0.000949 µM, first compound 0.0316 µM
[8] = second compound 0.000949 µM, first compound 0.1 µM
[9] = second compound 0.000949 µM, first compound 0.316 µM
[10] = second compound 0.000949 µM, first compound 1 µM
[11] = second compound 0.003 µM, first compound 0.0316 µM
[12] = second compound 0.003 µM, first compound 0.1 µM
[13] = second compound 0.003 µM, first compound 0.316 µM
[14] = second compound 0.003 µM, first compound 1 µM
[15] = second compound 0.00949 µM, first compound 0.0316 µM
[16] = second compound 0.00949 µM, first compound 0.1 µM
[17] = second compound 0.00949 µM, first compound 0.316 µM
[18] = second compound 0.00949 µM, first compound 1 µM
[19] = second compound 0.03 µM, first compound 0.0316 µM
[20] = second compound 0.03 µM, first compound 0.1 µM
[21] = second compound 0.03 µM, first compound 0.316 µM
[22] = second compound 0.03 µM, first compound 1 µM
[23] = second compound 0.0949 µM, first compound 0.0316 µM
[24] = second compound 0.0949 µM, first compound 0.1 µM
[25] = second compound 0.0949 µM, first compound 0.316 µM
[26] = second compound 0.0949 µM, first compound 1 µM
[27] = second compound 0.3 µM, first compound 0.0316 µM
[28] = second compound 0.3 µM, first compound 0.1 µM
[29] = second compound 0.3 µM, first compound 0.316 µM
[30] = second compound 0.3 µM, first compound 1 µM
[31] = second compound 0.000949 µM, first compound 3.16 µM
[32] = second compound 0.000949 µM, first compound 10 µM
[33] = second compound 0.003 µM, first compound 3.16 µM
[34] = second compound 0.003 µM, first compound 10 µM
[35] = second compound 0.00949 µM, first compound 3.16 µM
[36] = second compound 0.00949 µM, first compound 10 µM
[37] = second compound 0.03 µM, first compound 3.16 µM
[38] = second compound 0.03 µM, first compound 10 µM
[39] = second compound 0.0949 µM, first compound 3.16 µM
[40] = second compound 0.0949 µM, first compound 10 µM
[41] = second compound 0.3 µM, first compound 3.16 µM
[42] = second compound 0.3 µM, first compound 10 µM
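Also: spheroids exposed to compounds for seven days before readout.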
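For viability, T/C in this document: 100% = DMSO vehicle control viability.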

IC50 [1]: 45 nM | IC50 [2]: < 31.6 nM | IC50 [3]: < 31.6 nM | IC50 [4]: < 31.6 nM | IC50 [5]: < 31.6 nM | IC50 [6]: < 31.6 nM
SMILES: NC1c2ccccc2OC12CCN(c1cnc3c(N4CCCc5ncccc54)n[nH]c3n1)CC2 (configuration not stated) + CCn1c(-c2cc(N3CCN(C)CC3)cnc2C(C)OC)c2c3cc(ccc31)-c1csc(n1)CC(NC(=O)C1CC1C)C(=O)N1CCCC(N1)C(=O)OCC(C)(C)C2
viability, T/C [7]: 53.3% | viability, T/C [8]: 42.6% | viability, T/C [9]: 24.9% | viability, T/C [10]: 23.5% | viability, T/C [31]: 17.5% | viability, T/C [32]: 21.3% | viability, T/C [11]: 36.7% | viability, T/C [12]: 27.4% | viability, T/C [13]: 19.8% | viability, T/C [14]: 14.2% | viability, T/C [33]: 16.9% | viability, T/C [34]: 16.4% | viability, T/C [15]: 28.7% | viability, T/C [16]: 21% | viability, T/C [17]: 16.8% | viability, T/C [18]: 13.7% | viability, T/C [35]: 14.5% | viability, T/C [36]: 14% | viability, T/C [19]: 21.4% | viability, T/C [20]: 18% | viability, T/C [21]: 13.5% | viability, T/C [22]: 13% | viability, T/C [37]: 12.9% | viability, T/C [38]: 14.5% | viability, T/C [23]: 19.4% | viability, T/C [24]: 17% | viability, T/C [25]: 15.5% | viability, T/C [26]: 13.7% | viability, T/C [39]: 11.8% | viability, T/C [40]: 13.9% | viability, T/C [27]: 17.5% | viability, T/C [28]: 13.5% | viability, T/C [29]: 13.6% | viability, T/C [30]: 13.1% | viability, T/C [41]: 12% | viability, T/C [42]: 13.8%

IC50 [1]: > 10000 nM | IC50 [2]: > 10000 nM | IC50 [3]: 8980 nM | IC50 [4]: 8760 nM | IC50 [5]: 7050 nM | IC50 [6]: 2390 nM
SMILES: CC(Nc1ccc2c(c1)OCCn1cc(N3C(=O)OCC3C(F)F)nc1-2)C(N)=O (configuration not stated) + CCn1c(-c2cccnc2C(C)OC)c2c3cc(ccc31)N1CCOC(CC(NC(=O)C(C(C)C)N(C)C(=O)C3(F)CCN(C(=O)C#CC(C)(C)N(C)C)CC3)C(=O)N3CCCC(N3)C(=O)OCC(C)(C)C2)C1
viability, T/C [7]: 87.5% | viability, T/C [8]: 80.8% | viability, T/C [9]: 77.3% | viability, T/C [10]: 72.8% | viability, T/C [31]: 64.8% | viability, T/C [32]: 50.7% | viability, T/C [11]: 93.7% | viability, T/C [12]: 88.4% | viability, T/C [13]: 75% | viability, T/C [14]: 75.9% | viability, T/C [33]: 62.9% | viability, T/C [34]: 52.9% | viability, T/C [15]: 92.3% | viability, T/C [16]: 91.2% | viability, T/C [17]: 77.8% | viability, T/C [18]: 77.6% | viability, T/C [35]: 63.7% | viability, T/C [36]: 47.7% | viability, T/C [19]: 93% | viability, T/C [20]: 85.6% | viability, T/C [21]: 80.4% | viability, T/C [22]: 71.1% | viability, T/C [37]: 55.2% | viability, T/C [38]: 49.9% | viability, T/C [23]: 88.8% | viability, T/C [24]: 82.4% | viability, T/C [25]: 84.4% | viability, T/C [26]: 65.9% | viability, T/C [39]: 63% | viability, T/C [40]: 44.8% | viability, T/C [27]: 80% | viability, T/C [28]: 72.8% | viability, T/C [29]: 72% | viability, T/C [30]: 63.7% | viability, T/C [41]: 44.9% | viability, T/C [42]: 38.2%

More lines, now with the values behind:

SMILES: Nc1ccn(C2OC(CO)C(O)C2(F)F)c(=O)n1 (configuration not stated) + CCn1c(-c2cc(N3CCN(C)CC3)cnc2C(C)OC)c2c3cc(ccc31)-c1csc(n1)CC(NC(=O)C1CC1C)C(=O)N1CCCC(N1)C(=O)OCC(C)(C)C2
IC50 [1]: 21.9 nM | IC50 [2]: 7.2 nM | IC50 [3]: < 3.16 nM | IC50 [4]: < 3.16 nM | IC50 [5]: < 3.16 nM | IC50 [6]: < 3.16 nM | viability, T/C (second compound 0.000949 µM, first compound 0.00316 µM): 63.3% | viability, T/C (second compound 0.000949 µM, first compound 0.01 µM): 54.7% | viability, T/C [7]: 49.9% | viability, T/C [8]: 34.4% | viability, T/C [9]: 35% | viability, T/C [10]: 27.8% | viability, T/C (second compound 0.003 µM, first compound 0.00316 µM): 56.7% | viability, T/C (second compound 0.003 µM, first compound 0.01 µM): 46.3% | viability, T/C [11]: 40.4% | viability, T/C [12]: 33.6% | viability, T/C [13]: 33.1% | viability, T/C [14]: 24.3% | viability, T/C (second compound 0.00949 µM, first compound 0.00316 µM): 38.8% | viability, T/C (second compound 0.00949 µM, first compound 0.01 µM): 42.1% | viability, T/C [15]: 34.2% | viability, T/C [16]: 29.1% | viability, T/C [17]: 28.3% | viability, T/C [18]: 23.7% | viability, T/C (second compound 0.03 µM, first compound 0.00316 µM): 28.9% | viability, T/C (second compound 0.03 µM, first compound 0.01 µM): 31.7% | viability, T/C [19]: 24.4% | viability, T/C [20]: 22.1% | viability, T/C [21]: 24.1% | viability, T/C [22]: 21.7% | viability, T/C (second compound 0.0949 µM, first compound 0.00316 µM): 25.4% | viability, T/C (second compound 0.0949 µM, first compound 0.01 µM): 26.9% | viability, T/C [23]: 23.1% | viability, T/C [24]: 21.1% | viability, T/C [25]: 19.1% | viability, T/C [26]: 18.9% | viability, T/C (second compound 0.3 µM, first compound 0.00316 µM): 22.3% | viability, T/C (second compound 0.3 µM, first compound 0.01 µM): 25.2% | viability, T/C [27]: 23.3% | viability, T/C [28]: 20.9% | viability, T/C [29]: 22.2% | viability, T/C [30]: 19%

SMILES: CCn1c(-c2cc(N3CCN(C)CC3)cnc2C(C)OC)c2c3cc(ccc31)-c1csc(n1)CC(NC(=O)C1CC1C)C(=O)N1CCCC(N1)C(=O)OCC(C)(C)C2 (configuration not stated)
viability, T/C (compound 0.000949 µM): 65% [middle of 8 runs] | viability, T/C (compound 0.003 µM): 55.2% [middle of 8 runs] | viability, T/C (compound 0.00949 µM): 43.7% [middle of 8 runs] | viability, T/C (compound 0.03 µM): 33.3% [middle of 7 runs] | viability, T/C (compound 0.0949 µM): 27.4% [middle of 7 runs] | viability, T/C (compound 0.3 µM): 24.9% [middle of 8 runs] | IC50 (compound alone, run of 07/09/2024): 4 nM [middle of 8 runs]

SMILES: Nc1ccn(C2OC(CO)C(O)C2(F)F)c(=O)n1 (configuration not stated)
viability, T/C (compound 0.00316 µM): 108% [middle of 4 runs] | viability, T/C (compound 0.0316 µM): 70.9% [middle of 4 runs] | viability, T/C (compound 0.1 µM): 62.3% [middle of 4 runs] | viability, T/C (compound 1 µM): 38.8% [middle of 4 runs]

Source: PubChem BioAssay AID2060899 (Molecular Pharmacology Branch, DTP, NCI, 2025)
